Tests used:
Solubility = format: physicochemical; details: pH 0
Cyclic voltammetry (CV) = format: physicochemical; details: about 1 mM in 1M sulfuric acid in water
Procedure: [drawing 47] (concentration about 1 mM in 1M sulfuric acid in water) was studied by cyclic voltammetry (CV).
[drawing 48] (concentration about 1 mM in 1M sulfuric acid in water) was studied by CV.
[drawing 50] (concentration about 1 mM in 1M sulfuric acid in water) was studied by CV.
[drawing 53] (concentration about 1 mM in 1M sulfuric acid in water) was studied by CV.

| Compound | solubility (Solubility) [mM] | redox peaks location, higher-potential set (Cyclic voltammetry (CV)) [V] | redox peaks location, lower-potential set (Cyclic voltammetry (CV)) [V] |
| --- | --- | --- | --- |
| 9,10-anthraquinone-2,7-disulfonate [Scheme 1 ID 1] | ~1000 | – | – |
| O=C1c2ccccc2C(=O)c2c(O)c(S(=O)(=O)O)cc(O)c21 [Example 2, 1,4-dihydroxy-9,10-anthraquinone-3-sulfonic acid] | – | ~1.08 | ~0.11 |
| O=C1c2ccccc2C(=O)c2c1cc(S(=O)(=O)O)c(O)c2O [Example 3, 1,2-dihydroxy-9,10-anthraquinone-3-sulfonic acid] | – | ~1.3 | ~0.10 |
| O=C1c2ccccc2C(=O)c2c(O)c(SCCS(=O)(=O)O)c(SCCS(=O)(=O)O)c(O)c21 [Example 6, 2,2′-((1,4-dihydroxy-9,10-dioxo-9,10-dihydroanthracene-2,3-diyl)bis(sulfanediyl))bis(ethane-1-sulfonic acid)] | – | ~1.08 | ~0.11 |

Reference: patent US10847829B2, “Quinone and hydroquinone based flow battery” (President and Fellows of Harvard College, priority 2013, dated 2020)
